Read-outs that look alike come from different tables or passages of the source.
What was measured:
Test in all cases: MTT growth inhibition assay
Type in all cases: cell-based, human
Mia-paca = conditions: 72 hr, read-out: Growth inhibitory activity (IC50)
Method: (§1) Several of the disclosed compounds were also tested for their ability to inhibit the growth of other cancer cell lines as shown in Tables 4 and 5. The cell lines were obtained from the American Type Culture Collection (Rockville, Md.) and were grown as follows: MCF-7 (p53 wt) breast cancer cells were grown in DMEM media containing 1 mM non-essential amino acids, Earle's BSS, 1 mM Na pyruvate, and 10 mg/L bovine insulin. MDA-MB-468 (p53 mt) cells were grown in DMEM/F-12 Ham's media (1:1 mixture); H838 (p53 wt) cells were grown in RPMI 1640. H358 (p53 null), H1299 (p53 null) cells were grown in RPMI 1640 supplemented with 1.5 g/L Na2CO3; 4.5 g/L glucose, 10 mM HEPES buffer, 1 mM Na pyruvate and 2 mM L-glutamine. A549 (p53 wt) cells were grown in Ham's F12K medium supplemented with 2 mM L-glutamine and 1.5 g/L Na2CO3; LNCaP (p53 wt) cells were grown in RPMI 1640 supplemented with 1.5 g/L Na2CO3, 4.5 g/L glucose, 10 mM HEPES buffer, 1 mM Na pyruvate and 2 mM L-glutamine. PC3 (p53 null) cells were cultured in Ham's F-12K medium containing 2 mM L-glutamine. TRAMP Cl cells were cultured in DEME medium with 4 mM L-glutamine adjusted to contain 1.5 g/L sodium bicarbonate and 4.5 g/L glucose supplemented with 0.005 mg/ml bovine insulin and 10 nM dehydroisoandrosterone, 5% fetal bovine serum and 5% Nu-Serum IV; HPAC (p53 wt) pancreatic cancer cells were grown in a 1:1 mixture of DMEM and Ham's F12 medium containing 1.2 g/L Na2CO3, 2.5 mM L-glutamine, 15 mM HEPES and 0.5 mM Na pyruvate supplemented with 0.002 mg/mL insulin, 5 μg/mL transferrin, 40 ng/mL hydrocortisone, 10 ng/mL epidermal growth factor and 5% fetal bovine serum. PANC-1 (p53 mt) cells were cultured with RPMI 1640 containing 1 mM HEPES buffer, 25 μg/mL gentamicin, 1.5 g/L Na2CO3 and 0.25 μg/mL amphotericin B. BxPC-3 (p53 mt) cells were grown in RPMI 1640 medium, MiaPaCa-2 (p53 mt) and S2013 (p53 mt) cells were grown in DMEM, cell line CFPAC1 (p53 mt) was grown in Iscove's MEM supplemented with 4 mM L-glutamine; T98G (p53 mt) glioma cells were cultured with DMEM supplemented with 1% Na pyruvate, and 1% non-essential amino acids; HCT116 human colon cancer cell lines were kindly provided by Dr. Bert Vogelstein (Johns Hopkins Oncology Center, Baltimore, Md.). The HCT116 cell line was maintained in McCoy's-5A media; Human bronchial epithelial cell line BEAS 2B was cultured in DMEM medium; Human mammary epithelial cell line MCF10A was cultured in a 1:1 mixture of DMEM and Ham's F12 medium containing 5% horse serum, 15 mM hepes buffer, 10 ug/ml insulin, 20 ng/ml EGF, 100 ng/ml choleratoxin and 0.5 ug/ml hydrocortisone; the human primary fibroblast cell lines IMR90-EEA and IMR90-E1A (transformed using the adenoviral oncogene E1A) were gifts from Dr. S. Lee (Harvard University, Boston, Mass.). IMR90 and IMR90-E1A cells were cultured in DMEM medium.
(§2) All media contained 10% FBS and 1% penicillin/streptomycin unless otherwise specified. The effects of disclosed compounds on human cancer cell growth, expressed as the percentage of cell survival, were determined by the MTT [3-(4,5-Dimethyl-2-thiazolyl)-2,5-diphenyl-2H-tetrazolium bromide] assay. Cells were grown in 96-well plates and exposed to the test compounds (0, 0.01, 0.1, 1, 10, 100 μM) for 72 hr followed by addition of 10 μL MTT solution (5 mg/mL; Sigma; St. Louis, Mo.) to each well. The plates were incubated for 2-4 hr at 37° C. The supernatant was then removed and formazan crystals were dissolved with 100 μL of DMSO. The absorbance at 570 nm was recorded with an OPTImax microplate reader (Molecular Devices; Sunnyvale, Calif.). The cell survival percentages were calculated by dividing the mean OD of compound containing wells by that of DMSO-control wells. Three separate experiments were accomplished to determine the IC50.

MDA-MB-468 = conditions: MDA-MB-468, cancer cell, 72 hr, read-out: Growth inhibitory activity (IC50)
Method: as §1, §2

HPAC = conditions: cancer cell, 72 hr, read-out: Growth inhibitory activity (IC50)
Method: as §1, §2

CFPAC1 = conditions: 72 hr, read-out: Growth inhibitory activity (IC50)
Method: as §1, §2

BEAS-2B = conditions: normal cells, 72 hr, read-out: Growth inhibitory activity (IC50)
Method: as §1, §2

H358 = conditions: 72 hr, read-out: Growth inhibitory activity (IC50)
Method: as §1, §2

H838 = conditions: 72 hr, read-out: Growth inhibitory activity (IC50)
Method: as §1, §2

S2013 = conditions: S2013, cancer cell, 72 hr, read-out: Growth inhibitory activity (IC50)
Method: as §1, §2

BXPC3 = conditions: 72 hr, read-out: Growth inhibitory activity (IC50)
Method: as §1, §2

MCF10A = conditions: normal cells, 72 hr, read-out: Growth inhibitory activity (IC50)
Method: as §1, §2

Panc-1 = conditions: Panc-1, cancer cell, 72 hr, read-out: Growth inhibitory activity (IC50)
Method: as §1, §2

LNCaP = conditions: cancer cell, 72 hr, read-out: Growth inhibitory activity (IC50)
Method: as §1, §2

H1299 = conditions: 72 hr, read-out: Growth inhibitory activity (IC50)
Method: as §1, §2

IMR90-EEA = conditions: normal cells, 72 hr, read-out: Growth inhibitory activity (IC50)
Method: as §1, §2

[1] = Homo sapiens, MIA PaCa-2, cancer cell
[2] = Homo sapiens, CFPAC-1, CFPAC1, cancer cell
[3] = Homo sapiens, NCI-H358, H358, cancer cell
[4] = Homo sapiens, NCI-H838, H838, cancer cell
[5] = Homo sapiens, BXPC-3, BXPC3, cancer cell
[6] = Homo sapiens, NCI-H1299, H1299, cancer cell

SMILES | IC50 (Mia-paca; cancer cell) [nM] | IC50 (MDA-MB-468) [nM] | IC50 (HPAC) [nM] | IC50 (CFPAC1; CFPAC1, cancer cell) [nM] | IC50 (BEAS-2B) [nM] | IC50 (H358; H358, cancer cell) [nM] | IC50 (Mia-paca; [1]) [nM] | IC50 (MDA-MB-468; Homo sapiens) [nM] | IC50 (HPAC; Homo sapiens) [nM] | IC50 (CFPAC1; [2]) [nM] | IC50 (BEAS-2B; Homo sapiens) [nM] | IC50 (H358; [3]) [nM] | IC50 (H838; [4]) [nM] | IC50 (S2013; Homo sapiens) [nM] | IC50 (BXPC3; [5]) [nM] | IC50 (MCF10A; Homo sapiens, MCF-10A) [nM] | IC50 (Panc-1; Homo sapiens) [nM] | IC50 (LNCaP; Homo sapiens) [nM] | IC50 (H1299; [6]) [nM] | IC50 (IMR90-EEA; Homo sapiens) [nM] | other results
O=C1C(NCc2ccccc2)=CC2=NCCc3c[nH]c1c32 [Compound 4c] | 345 | 126 | 689 | 8770 | 1440 | 436 | – | – | – | – | – | – | – | – | – | – | – | – | – | – | IC50 (H838; H838, cancer cell): 160 nM; IC50 (S2013): 3850 nM; IC50 (BXPC3; BXPC3, cancer cell): 2870 nM; IC50 (MCF10A): 5270 nM; IC50 (Panc-1): 141 nM; IC50 (LNCaP): 2750 nM; IC50 (H1299; H1299, cancer cell): 1420 nM; IC50 (IMR90-EEA): 2770 nM
O=C1C(NCCc2ccccc2)=CC2=NCCc3c[nH]c1c32 [Compound 4d] | 982 | 101 | 1130 | 5110 | 695 | 398 | – | – | – | – | – | – | – | – | – | – | – | – | – | – | IC50 (H838; H838, cancer cell): 260 nM; IC50 (S2013): 5390 nM; IC50 (BXPC3; BXPC3, cancer cell): 2940 nM; IC50 (MCF10A): 6820 nM; IC50 (Panc-1): 258 nM; IC50 (LNCaP): 161 nM; IC50 (H1299; H1299, cancer cell): 4270 nM; IC50 (IMR90-EEA): 3770 nM
O=C(O)C(F)(F)F.O=C1C(NCCc2ccc3c(c2)OCO3)=CC2=NCCc3c[nH]c1c32 [Compound 6] | – | – | – | – | – | – | 2740 | 428 | 2920 | 9100 | 2240 | 1200 | 665 | 11200 | 3210 | 13100 | 587 | 3960 | 5940 | 5700 | –
COc1ccc(CCNC2=CC3=NCCc4c[nH]c(c43)C2=O)cc1OC.O=C(O)C(F)(F)F [Compound 20] | – | – | – | – | – | – | 1320 | 277 | 2850 | 4270 | 1690 | 983 | 838 | 29600 | 5010 | 3400 | 720 | 24500 | 5990 | 2880 | –
O=C(O)C(F)(F)F.O=C1C(NCc2ccc(F)cc2)=CC2=NCCc3c[nH]c1c32 [Compound 28] | – | – | – | – | – | – | 315 | 125 | 535 | 5400 | 587 | 170 | 110 | 4450 | 2300 | 5330 | 104 | 1290 | 968 | 1490 | –

Source: patent publication US20100144779A1, “Marine Alkalod Makaluvamines and Derivatives Thereof” (THE UAB RESEARCH FOUNDATION, priority 2007, published 2010)
